The record followed here is patent US4005206A, “[9H]-Pyrido-[3,4-b]-indoles” (Roussel-UCLAF, priority 1976, dated 1977).

pIC50: −log10 of the molar value. In brackets after ≈: the same amount, converted by molar mass. Counter-ions that a name gives are not always drawn.

In data set [1] the test system is amytal-induced sleep. The data set is described as follows: Potentialization of sleeping time (amytal). The format is in vivo, female mice. The note with it: for minimal effective dose: Mus musculus, ip, 1 h, i.p. one hour before 80 mg/kg i.v. amytal, female mice 18 to 22 g, 25° C, read-out: DE50 (minimum dose for significantly prolonging the duration of sleep); for neurosedative activity (in words): conclusion from Table II. Here is the method:
2. Potentialization of sleeping time
This test was effected with amytal (5-ethyl-5-isoamyl-barbituric acid) on groups of female mice weighing 18 to 22 g and held at 25° C for the duration of the test. The test products were administered intraperitoneally at different does one hour before the intravenous administration of 80 mg/kg of amytal and the time of sleep was recorded as the suspending time for the straighting reflex of the mice as negative.

Data set [2] in a line: Acute toxicity. The note with it: mouse, in vivo, ip; intraperitoneal, mice, mortality 48 hours later; read-out: Approximate DL50 (50% lethal dose). Here is the method: The 50% lethal dose (DL50) was determined by intraperitoneal administration of the products to mice and the mortality was determined 48 hours later.
In data set [3] the test system is serotonine-provoked contraction of guinea pig ileon. Description: Antiserotonine activity on isolated ileon. The format is cell-based. The settings on record: for IC50: Cavia porcellus, isolated guinea pig ileon, Tyrode liquid 37° C, contact time one minute, read-out: IC50 (approximate 50% inhibiting concentration, contraction by serotonine). Here is the method:
Serotonine provokes contraction of a certain number of smooth muscles and especially guinea pig ileon and antiserotonine activity is determined in vitro on the isolated ileon of the guinea pig immersed in oxygenated Tyrode liquid at 37° C. The activity of the antagonist is measured by the concentration thereof which after a contact time of one minute diminishes by about 50% the contraction of a portion of ileon when a standard dose of serotonine is added to the Tyrode liquid. The approximate 50% inhibiting concentration (IC50) was determined in micrograms per ml and the results are in Table IV.

The subject of data set [4] is rigidity provoked by reserpine. Description: Antagonism to reserpinic rigidity (electromyogram). The format is in vivo, rats. Further details: key to Antagonism to reserpine rigidity: The results were expressed by an increasing number of + sign; ++: The results were expressed by an increasing number of + sign. The settings on record: for Antagonism to reserpine rigidity: 20 mg/kg i.v., 30 minutes after 10 mg/kg i.v. reserpine, EMG, rats; for activity against reserpine rigidity (in words): dose of 20 mg/kg. On the procedure: 3. Antagonism to reserpinic rigidity
This test was effected on rats using the procedure of Jurna I. [Arch. Pharmak. Exp. Path., Vol. 260 (1968), p. 80-88] wherein the electromyogram (EMG) caused by a dorsiflexion due to the shock of the foot by electrodes placed against the muscles of the front portion of the rear paw of the animal. A dose of 10 mg/kg of reserpine was intravenously administered and then 30 minutes later when the hypertonicity of the muscle was the maximum, the test product was intravenously administered at a dose of 20 mg/kg. The inhibition was observed by the electromyogram showing the antagonism exercised by the test product against the rigidity provoked by reserpine.

In data set [5] the test system is platelet aggregation caused by collagen. Description: Platelet aggregation caused by collagen (turbidimetric method of Born). The note with it: for pIC50: Oryctolagus cuniculus, rabbit platelet-rich plasma, 40 μg/ml collagen, read-out: IC50 (dose which inhibited by 50% the aggregation caused by collagen); for activity against platelet aggregation caused by collagen (in words): conclusion in words. The format is cell-based, rabbit. On the procedure: Platelet aggregation is effected with a Mustard aggregometer using the turbidimetric method of Born [J. Physiol., Vol. 168 (1963), p. 178-195] which consists of measuring the variation in transmission of a light ray or beam passing through a tube containing a plasma rich in platelets. When the aggregates are formed, the amount of light transmitted is greater and the optical density is diminished. The platelets used are obtained from rabbit plasma and the agent inducing the aggregation was 40 μg/ml of collagen. The 50% inhibiting concentration (IC50) was determined for each product which was the dose which inhibited by 50% the aggregation caused by collagen.

In data set [6] the test system is toxicity of the amphetamine group (dexamphetamine sulfate). The data set is described as follows: Antagonism toward amphetamine type (dexamphetamine-induced mortality). The format is in vivo, male mice. The settings on record: for ED50: Mus musculus, ip, i.p. one hour before 15 mg/kg i.p. dexamphetamine sulfate, mortality at 4 hours, male mice, read-out: DE50 (dose which reduced by 50% the number of dead animals); for antagonism with respect to the toxicity of the amphetamine group (in words): conclusion from Table I. On the procedure: 1. Antagonism toward amphetamine type
The antagonism of the compounds with regard to amphetaminic group was studied on groups of 10 male mice which received intraperitoneally 15 mg/kg of dexamphetamine sulfate one hour after the intraperitoneal administration of the test compound.
The mortality per group was totally counted 4 hours after the administration of dexamphetamine sulfate and the DE50 dose which reduced by 50% the number of dead animals was determined as shown in Table I.

Consider `COc1ccc2[nH]cc(CC3NCCc4c3[nH]c3ccc(OC)cc43)c2c1` (centres unmarked) [Example 1, 1-(5'-methoxy-3'-indolyl-methyl)-6-methoxy-1,2,3,4-tetrahydro[9H]-pyrido-[3,4-b]-indole-hydrochloride], for which, in data set [1], the minimal effective dose was determined as 10 mg/kg and the “neurosedative activity (in words)” value is listed as “very important neurosedative activity”. For the same compound, the LD50 at 48 h in data set [2] stood at 150 mg/kg. Besides, the IC50 in data set [3] was determined as 0.5 µg/mL. Besides, in data set [4], the “Antagonism to reserpine rigidity” value is listed as “++” and the “activity against reserpine rigidity (in words)” value was “very active”.

In the case of `COc1ccc2[nH]cc(CC3NCCc4c3[nH]c3ccc(O)cc43)c2c1` (centres unmarked) [Example 2, 1-(5'-methoxy-3'-indolyl-methyl)-6-hydroxy-1,2,3,4-tetrahydro[9H]-pyrido-[3,4-b]-indole], the minimal effective dose in data set [1] is 50 mg/kg. The LD50 at 48 h in data set [2] is 200 mg/kg. The IC50 in data set [3] is 0.5 to 1 µg/mL (≈ 1.44 to 2.88 µM).

Turning to `COc1ccc2[nH]c3c(c2c1)CCNC3Cc1c[nH]c2ccccc12` (centres unmarked) [Example 3, 1-(3'-indolylmethyl)-6-methoxy-1,2,3,4-tetrahydro-[9H]-pyrido-[3,4-b]-indole hydrochloride], the LD50 at 48 h in data set [2] was determined as 350 mg/kg. Further, in data set [3], the IC50 was determined as 1 µg/mL. In addition, the “Antagonism to reserpine rigidity” value in data set [4] was “+”.

Consider `Clc1ccc2[nH]cc(CC3NCCc4c3[nH]c3ccccc43)c2c1` (centres unmarked) [Example 4, 1-(5'-chloro-3'-indolyl-methyl)-1,2,3,4-tetrahydro-[9H]-pyrido-[3,4-b]-indole hydrochloride], for which the minimal effective dose in data set [1] amounted to 50 mg/kg. Besides, in data set [2], the LD50 at 48 h amounted to 500 mg/kg.

What is called pIC50 is the negative decadic logarithm of the IC50, by convention in mol/L. As for `COc1ccc2[nH]cc(CC3NCCc4c3[nH]c3ccccc43)c2c1` (centres unmarked) [Example 5, 1-(5'-methoxy-3'-indolyl-methyl)-1,2,3,4-tetrahydro-[9H]pyrido-[3,4-b]-indole-hydrochloride], the minimal effective dose in data set [1] came out at 50 mg/kg. The LD50 at 48 h in data set [2] is 150 mg/kg. Further, in data set [3], the IC50 worked out at 2 µg/mL. For the same compound, the pIC50 in data set [5] was ~4.00. Besides, in data set [4], the “Antagonism to reserpine rigidity” value is listed as “++” and the “activity against reserpine rigidity (in words)” value was “very active”.

Turning to `Oc1ccc2[nH]c3c(c2c1)CCNC3Cc1c[nH]c2ccccc12` (centres unmarked) [Example 6, 6-hydroxy-1-(3'-indolyl-methyl)-1,2,3,4-tetrahydro [9H]pyrido-[3,4-b]-indole-fumarate], the minimal effective dose in data set [1] was 20 mg/kg. For the same compound, the LD50 at 48 h in data set [2] amounted to 150 mg/kg. Also, in data set [6], the ED50 was 35 mg/kg and the “antagonism with respect to the toxicity of the amphetamine group (in words)” value is listed as “important antagonism”. Also, the IC50 in data set [3] came to 2 µg/mL (≈ 6.3 µM). Further, in data set [5], the “activity against platelet aggregation caused by collagen (in words)” value is listed as “important activity”.

Turning to `Clc1ccc2[nH]c3c(c2c1)CCNC3Cc1c[nH]c2ccccc12` (centres unmarked) [Example 7, 6-chloro-1-(3'-indolylmethyl)-1,2,3,4-tetrahydro-[9H]-pyrido-[3,4-b]-indole], in data set [1], the minimal effective dose worked out at 10 mg/kg and the “neurosedative activity (in words)” value was “very important neurosedative activity”. The LD50 at 48 h in data set [2] came out at 150 mg/kg. In data set [6], the ED50 came to 20 mg/kg and the “antagonism with respect to the toxicity of the amphetamine group (in words)” value is on record as “important antagonism”. The IC50 in data set [3] lay in the range of 1 to 2 µg/mL (≈ 2.98 to 5.96 µM).

With `Oc1ccc2[nH]cc(CC3NCCc4c3[nH]c3ccccc43)c2c1` (centres unmarked) [Example 9, 1-(5'-hydroxy-3'-indolyl-methyl)-1,2,3,4-tetrahydro-[9H]-pyrido-[3,4-b]-indole-hydrochloride], in data set [6], the ED50 stood at 50 mg/kg. Moreover, in data set [3], the IC50 was in the range of 0.1 to 0.2 µg/mL. Besides, in data set [3] (conclusion in words), the “antiserotonine activity (in words)” value is “important antiserotonine activity”. In data set [5], the pIC50 is 6.00 and the “activity against platelet aggregation caused by collagen (in words)” value is reported as “important activity”.

Consider `c1ccc(COc2ccc3[nH]cc(CC4NCCc5c4[nH]c4ccc(OCc6ccccc6)cc54)c3c2)cc1` (centres unmarked) [Example 10, 1-(5'-benzyloxy-3' -indolylmethyl)-6-benzyloxy-1,2,3,4-tetrahydro-[9H]-pyrido-[3,4-b]-indole-hydrochloride], for which the LD50 at 48 h in data set [2] stood at 300 mg/kg.
